Test results taken from US20020045231A1, “Catalytic antibodies which hydrolyze primary amides and methods for eliciting such antibodies” (priority 1999, published 2002).
Square brackets hold non-standard residues; d marks the D form. Peptide text beside a SMILES is read from it. * marks the point of attachment. Sta = CC(C)C[C@H](N)[C@@H](O)CC(=O)O; Isovaleryl = CC(C)CC(=O)*

Experiments:
13D11 [1] = assay: Inhibition of 13D11-catalyzed hydrolysis by haptens/inhibitors; format: biochemical, mouse
Protocol: Antibody 13D11 (14.5 μM) was re-screened for activity toward 10 (nominally 500 μM) in the absence and presence of 63 μM (RT-2 hapten)(D/L mixture).
Until this point, 13D11 antibody had been purified by Protein A and DEAE chromatography. To determine whether the activity toward 10 was due to a contaminating enzyme, 13D11 was further purified on a Mono Q column (Pharmacia) by FPLC.
Hapten Ki was determined by quantitating the effect of the concentration of 1b or 1c on the velocity of 13D11 hydrolysis of 2b. Rates obtained at fixed antibody and substrate concentrations were fitted to the equation; V1/Vo=(2[Ab]−[l]−Ki′+{([l]+Ki′−2[Ab])^2+4Ki′2[Ab]}^0.5)/4[Ab], where Vi and Vo are, respectively, the velocities in the presence and absence of hapten, 2[Ab] is the total concentration of antibody combining sites, [l] is hapten concentration, Ki′=Ki/(1+[S]/Km), and Ki is the inhibition constant (S. Cha, Biochem. Pharmacol. 1975, 24, 2177).
Control experiments verified that the hydrolytic activity was not due to a contaminating protease. […] (The (L)-hapten spatially corresponds to the (D)-amide substrate.) The inhibition constant, Ki, was determined by an HPLC assay to be 14.0 (±+1.6) μM.
The substrate specificity of 13D11 was more rigorously determined by monitoring its activity towards the dansylated amides 9 and 10, dansylated esters 11 and 12, acetylated amides 13 and 14, and acetylated esters 15 and 16. The esterolytic activity of 13D11 with the dansylated or acetylated esters (45 μM-1.0 mM) was examined at 25° C. in an assay mixture containing MTEN, 0.1 mM EDTA, 0.1 mM PMSF, 0.01% NaN3, and 13D11 (7-14 μM). Aliquots were removed from the incubation mixtures every hour for 4 hours and kept in ice prior to analysis. The dansylated esters were analyzed by TLC while the acetylated esters were subjected to HPLC analysis. […] The observed esterase activity may be due to a trace of a contaminating enzyme in the antibody preparation.
The amidase activity of 13D11 was likewise examined using the same buffer system as the one mentioned above in the presence of 13D11 (17 μM), and the acetylated amide 13 or 14 (0.5-1.0 mM). […] The ability of 13D11 to discriminate between the dansylated amides 9 and 10 was investigated by determining the formation of the hydrolysis product by TLC. The reaction samples containing 150 μM of either amide 9 or 100 30 μM 13D11, with or without hapten 5 (0.5 mM) in the above buffer system were assayed after 5 days of incubation at 25° C. […] Thus, the activity of the catalytic antibody requires the alkyl linker that was present during immunization, and has a stereospecificity opposite of known natural proteolytic enzymes.
An important control in the examination of the catalytic activity of 13D11 IgG molecule is the retention of the haptenic and substrate binding abilities by its Fab′ fragment. Accordingly, the amidase activities of 13D11 (whole IgG molecule) and the 13D11 Fab′ fragment were compared. The reaction mixtures contained MTEN, 1 mM EDTA, 0.1 mM PMSF, 0.01% NaN3, 150 μM dansylated amide 9 or 100 μM 13D11 (IgG) or Fab′, with or without (assumed) hapten 5 (0.5 mM). […] The esterase activity for the Fab′ fragment was also examined in the above buffer system containing 100 μM of either ester 11 or 12, and 7 μM 13D11 (Fab′). Aliquots were removed at various time points and analyzed by TLC. […] The contaminating enzyme in the antibody solution may have been removed during the purification of the Fab′ fragment.

13D11 [2] = assay: Effect of common protease inhibitors on the antibody-catalyzed reaction; format: biochemical, mouse; details: inhibitor concentrations sufficient to abolish the respective proteases
Protocol: Extensive purification of 13D11 was carried out. Monoclonal antibodies were purified from ascites using standard procedures of lipid extraction and ammonium sulfate precipitation followed by column chromatography on protein A, DEAE, Mono Q, and finally Alkyl Superose (Pharmacia, Piscataway, N.J.). Finally, nine common inhibitors of known proteases were tested at concentrations sufficient to completely abolish all for their effect on the antibody-catalyzed reaction.

Row | Compound | effect on amidolytic activity of 13D11 (13D11 [2]) | other results
1 | O=S(=O)(O)CCNC1CCCCC1 [CHES] |  | effect of buffer on hydrolysis of 10 by 13D11 (13D11 [1]; CHES buffer tried as an alternative to Tris): inhibit the hydrolysis
2 | CC(=O)NCCCCCC(=O)NC(Cc1ccccc1)P(C)(=O)O (centres unmarked) [Compound 5] |  | Ki (13D11 [1]; 13D11 hydrolysis of 10, HPLC assay, read-out: inhibition constant, Ki): 14 µM; inhibition of esterase activity toward 11 in the 13D11 preparation (13D11 [1]; 25° C., MTEN): not inhibited; inhibition of 13D11 amidase activity toward 10 (13D11 [1]; hapten 5 0.5 mM, 5 days at 25° C., TLC): inhibition of its amidase activity; inhibition of amidase activities of 13D11 IgG and Fab′ (13D11 [1]; hapten 5 0.5 mM, dansylated amide 10): inhibited; inhibition of 13D11 by hapten enantiomers (13D11 [1]; hydrolysis of 10): inhibited 13D11
3 | CC(C)C[C@H](NC(=O)[C@H]1O[C@@H]1C(=O)O)C(=O)NCCCCN=C(N)N [Compound E-64] | Partial inhibition | 
4 | O=C(O)CN(CCN(CC(=O)O)CC(=O)O)CC(=O)O [EDTA] | essentially unaffected | 
5 | O=S(=O)(F)Cc1ccccc1 [PMSF] | essentially unaffected | 
6 | CC(C)C[C@H](NC(=O)[C@@H](O)[C@H](N)Cc1ccccc1)C(=O)O [bestatin] | Partial inhibition | 
7 | CC(=O)N[C@@H](CC(C)C)C(=O)N[C@@H](CC(C)C)C(=O)N[C@H](C=O)CCCNC(=N)N [leupeptin] | essentially unaffected | 
8 | CC(C)CC(=O)N[C@H](C(=O)N[C@H](C(=O)N[C@@H](CC(C)C)[C@@H](O)CC(=O)N[C@@H](C)C(=O)N[C@@H](CC(C)C)[C@@H](O)CC(=O)O)C(C)C)C(C)C [pepstatin] (Isovaleryl-VV[Sta]A[Sta]-OH) | Partial inhibition | 
9 | CC(C)C[C@H](NP(=O)(O)O[C@@H]1O[C@@H](C)[C@H](O)[C@@H](O)[C@H]1O)C(=O)N[C@@H](Cc1c[nH]c2ccccc12)C(=O)O [phosphoramidon] | essentially unaffected | 
10 | aprotinin | essentially unaffected | 
